Measured values published in ChEMBL document CHEMBL1201862, “PubChem BioAssay data set” (2004).
Calls of active or inactive are those of the source.

How the values were obtained:
[1] = HEp-2 cell cytotoxicity, dose response, cytotoxicity control for RSV inhibitor project, HTS (AID 2410); type: functional; conditions: human respiratory syncytial virus
[2] = biological target: T1, Short transient receptor potential channel 4 (Mus musculus, UniProt Q9QUQ5); experiment: mouse TRPC4 channel inhibitors, dose response, cell-based, HEK293 TRPC4/mu-opioid, Fluo-4 calcium (AID 434942); type: functional;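 note: potency of inhibitors blocking the TRPC4 calcium response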
T1 sequence (Q9QUQ5 whole entry): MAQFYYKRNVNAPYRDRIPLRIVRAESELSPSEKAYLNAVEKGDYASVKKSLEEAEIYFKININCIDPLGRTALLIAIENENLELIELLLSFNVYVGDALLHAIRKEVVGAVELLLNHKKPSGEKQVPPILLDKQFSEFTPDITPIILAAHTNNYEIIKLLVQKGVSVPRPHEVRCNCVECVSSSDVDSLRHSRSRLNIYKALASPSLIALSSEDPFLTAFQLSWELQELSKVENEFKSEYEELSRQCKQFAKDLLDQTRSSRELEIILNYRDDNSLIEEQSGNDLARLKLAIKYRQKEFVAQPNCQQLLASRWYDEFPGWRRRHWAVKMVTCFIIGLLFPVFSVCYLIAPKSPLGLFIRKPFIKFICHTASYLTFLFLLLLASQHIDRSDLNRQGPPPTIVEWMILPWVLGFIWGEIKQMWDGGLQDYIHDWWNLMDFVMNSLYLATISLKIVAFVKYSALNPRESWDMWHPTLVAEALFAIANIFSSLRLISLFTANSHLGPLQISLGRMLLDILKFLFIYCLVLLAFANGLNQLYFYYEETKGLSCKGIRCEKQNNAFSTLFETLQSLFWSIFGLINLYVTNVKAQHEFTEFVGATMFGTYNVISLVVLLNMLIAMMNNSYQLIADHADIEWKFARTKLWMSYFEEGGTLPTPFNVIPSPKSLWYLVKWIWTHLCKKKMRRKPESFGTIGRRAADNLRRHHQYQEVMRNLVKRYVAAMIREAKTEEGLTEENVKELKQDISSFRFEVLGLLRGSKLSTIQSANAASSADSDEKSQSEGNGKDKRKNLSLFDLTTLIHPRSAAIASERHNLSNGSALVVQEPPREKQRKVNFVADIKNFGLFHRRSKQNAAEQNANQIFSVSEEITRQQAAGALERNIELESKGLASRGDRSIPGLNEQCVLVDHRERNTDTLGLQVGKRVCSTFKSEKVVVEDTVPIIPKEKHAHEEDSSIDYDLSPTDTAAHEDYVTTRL

[3] = biological target: T1, Short transient receptor potential channel 4; experiment: mouse TRPC4 channel activators, dose response, cell-based, HEK293 TRPC4/mu-opioid, Fluo-4 calcium (AID 434937); type: functional
[4] = biological target: T2, Polyadenylate-binding protein 1 (Homo sapiens, UniProt P11940); experiment: PABP1 MLLE–PAM2 interaction inhibitors, dose response, miRNA deadenylation inhibitor project, biochemical, fluorescence polarization, Cy5-PAM2 peptide, secondary (AID 602260); type: functional; conditions: read-out: IC50_Mean
T2 sequence (P11940 whole entry): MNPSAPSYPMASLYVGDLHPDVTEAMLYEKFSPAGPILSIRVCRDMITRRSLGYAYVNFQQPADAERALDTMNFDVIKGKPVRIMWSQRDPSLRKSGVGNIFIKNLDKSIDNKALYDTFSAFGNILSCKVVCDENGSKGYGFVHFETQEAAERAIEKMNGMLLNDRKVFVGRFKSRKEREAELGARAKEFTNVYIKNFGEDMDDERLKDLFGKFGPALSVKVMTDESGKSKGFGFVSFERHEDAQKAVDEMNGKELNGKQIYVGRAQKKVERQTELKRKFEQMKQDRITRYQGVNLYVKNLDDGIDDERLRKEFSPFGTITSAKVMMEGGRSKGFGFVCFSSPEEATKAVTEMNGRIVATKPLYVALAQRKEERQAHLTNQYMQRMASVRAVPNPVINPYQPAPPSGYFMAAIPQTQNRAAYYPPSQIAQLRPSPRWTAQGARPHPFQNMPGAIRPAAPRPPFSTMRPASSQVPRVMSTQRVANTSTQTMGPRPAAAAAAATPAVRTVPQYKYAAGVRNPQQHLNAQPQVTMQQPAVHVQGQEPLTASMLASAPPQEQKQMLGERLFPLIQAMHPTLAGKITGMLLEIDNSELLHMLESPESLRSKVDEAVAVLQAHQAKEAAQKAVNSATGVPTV

[5] = biological target: T2, Polyadenylate-binding protein 1; experiment: PABP1 MLLE–PAM2 binding inhibitor potency, dose response, biochemical, fluorescence polarization, FITC-PAM2 peptide (AID 602259); type: functional; conditions: read-out: IC50_Mean
[6] = biological target: T3, Leucine aminopeptidase (Plasmodium falciparum 3D7, UniProt Q8IL11); experiment: P. falciparum M17LAP inhibitors, primary screen, biochemical, fluorogenic H-Leu-NHMec substrate, 1536-well (AID 1619); type: functional
T3 sequence (Q8IL11 whole entry): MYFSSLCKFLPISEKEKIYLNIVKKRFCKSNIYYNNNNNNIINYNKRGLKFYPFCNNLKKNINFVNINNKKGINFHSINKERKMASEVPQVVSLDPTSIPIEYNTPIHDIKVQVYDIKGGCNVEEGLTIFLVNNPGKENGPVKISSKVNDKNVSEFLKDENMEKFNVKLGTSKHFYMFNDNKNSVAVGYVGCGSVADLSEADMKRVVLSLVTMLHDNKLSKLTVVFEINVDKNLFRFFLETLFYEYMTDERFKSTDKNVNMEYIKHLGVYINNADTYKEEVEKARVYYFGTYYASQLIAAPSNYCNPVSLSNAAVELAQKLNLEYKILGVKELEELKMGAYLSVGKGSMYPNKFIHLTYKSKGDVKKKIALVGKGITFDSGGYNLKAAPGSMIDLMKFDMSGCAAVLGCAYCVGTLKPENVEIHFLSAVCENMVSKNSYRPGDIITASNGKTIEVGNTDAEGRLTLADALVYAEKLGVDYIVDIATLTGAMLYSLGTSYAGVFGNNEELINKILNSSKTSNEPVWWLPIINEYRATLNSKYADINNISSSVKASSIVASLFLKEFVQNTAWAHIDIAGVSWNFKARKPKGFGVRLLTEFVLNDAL

[7] = biological target: T4, RNA-binding protein pos-1 (Caenorhabditis elegans, UniProt G5EF15); experiment: inhibitors of POS-1/mex-3 RNA binding, dose response, biochemical, fluorescence polarization (AID 1964);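 note: purified POS-1 fused to maltose binding protein made in E. coli; potency of compounds blocking POS-1 binding to fluorescent RNA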
T4 sequence (G5EF15 whole entry): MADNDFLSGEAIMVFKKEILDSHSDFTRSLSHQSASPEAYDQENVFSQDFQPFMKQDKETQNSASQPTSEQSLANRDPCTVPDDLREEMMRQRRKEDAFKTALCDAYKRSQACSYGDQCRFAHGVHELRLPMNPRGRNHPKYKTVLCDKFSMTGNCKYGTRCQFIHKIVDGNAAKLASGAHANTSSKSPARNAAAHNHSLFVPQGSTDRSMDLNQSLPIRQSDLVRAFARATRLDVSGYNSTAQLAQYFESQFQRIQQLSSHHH

[8] = biological target: T5, Zinc finger protein mex-5 (Caenorhabditis elegans, UniProt Q9XUB2); experiment: MEX-5/TCR-2 RNA interaction inhibitors, dose response, biochemical, C. elegans, fluorescence polarization (AID 1960)
T5 sequence (Q9XUB2 whole entry): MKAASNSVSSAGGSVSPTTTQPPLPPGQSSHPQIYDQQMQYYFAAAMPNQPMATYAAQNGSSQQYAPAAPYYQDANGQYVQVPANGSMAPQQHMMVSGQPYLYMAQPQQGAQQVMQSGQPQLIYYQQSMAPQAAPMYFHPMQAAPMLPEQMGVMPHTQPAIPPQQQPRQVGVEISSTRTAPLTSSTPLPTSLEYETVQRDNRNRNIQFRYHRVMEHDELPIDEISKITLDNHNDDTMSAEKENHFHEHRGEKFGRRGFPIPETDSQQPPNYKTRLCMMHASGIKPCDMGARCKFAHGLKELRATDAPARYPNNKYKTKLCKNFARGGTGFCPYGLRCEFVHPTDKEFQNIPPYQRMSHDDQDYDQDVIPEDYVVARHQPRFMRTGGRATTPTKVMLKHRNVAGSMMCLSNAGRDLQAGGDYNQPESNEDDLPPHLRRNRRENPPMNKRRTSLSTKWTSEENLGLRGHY

[9] = biological target: T6, Replicative DNA helicase DnaB (Mycobacterium tuberculosis, UniProt P9WMR3); experiment: DnaB intein splicing inhibitors, dose response, biochemical, cell-free fluorescence (AID 449749); type: functional
T6 sequence (P9WMR3 whole entry): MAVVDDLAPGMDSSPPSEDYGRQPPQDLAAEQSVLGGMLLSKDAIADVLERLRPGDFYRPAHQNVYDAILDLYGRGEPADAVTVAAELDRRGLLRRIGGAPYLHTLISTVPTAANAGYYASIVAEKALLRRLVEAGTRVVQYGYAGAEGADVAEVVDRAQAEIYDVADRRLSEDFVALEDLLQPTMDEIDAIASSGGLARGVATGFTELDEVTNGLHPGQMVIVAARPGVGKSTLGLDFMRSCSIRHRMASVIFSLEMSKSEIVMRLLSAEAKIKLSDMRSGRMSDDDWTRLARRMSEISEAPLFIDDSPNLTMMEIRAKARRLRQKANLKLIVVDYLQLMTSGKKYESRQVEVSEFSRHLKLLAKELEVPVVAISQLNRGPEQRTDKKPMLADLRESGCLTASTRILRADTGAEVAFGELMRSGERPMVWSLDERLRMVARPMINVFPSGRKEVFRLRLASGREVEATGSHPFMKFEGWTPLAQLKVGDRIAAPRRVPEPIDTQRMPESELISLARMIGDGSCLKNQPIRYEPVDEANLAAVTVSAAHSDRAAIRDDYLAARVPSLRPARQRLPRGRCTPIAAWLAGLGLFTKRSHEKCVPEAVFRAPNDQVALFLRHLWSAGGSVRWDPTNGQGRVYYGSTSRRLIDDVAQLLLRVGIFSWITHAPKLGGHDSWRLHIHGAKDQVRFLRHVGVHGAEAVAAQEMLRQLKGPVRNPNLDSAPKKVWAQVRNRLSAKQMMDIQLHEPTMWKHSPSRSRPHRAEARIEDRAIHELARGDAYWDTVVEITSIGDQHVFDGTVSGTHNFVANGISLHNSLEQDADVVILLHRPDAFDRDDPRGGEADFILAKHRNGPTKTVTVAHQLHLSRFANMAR

[10] = biological target: T7, Protein RecA (Mycobacterium tuberculosis, UniProt P9WHJ3); experiment: Fluorescence Cell-Free Homogeneous Dose Retest to Identify Inhibitors of RecA-Intein Splicing Activity. [Related pubchem assays (depositor defined):AID2097, AID2223, AID489010, AID492950]; type: functional
T7 sequence (P9WHJ3 whole entry): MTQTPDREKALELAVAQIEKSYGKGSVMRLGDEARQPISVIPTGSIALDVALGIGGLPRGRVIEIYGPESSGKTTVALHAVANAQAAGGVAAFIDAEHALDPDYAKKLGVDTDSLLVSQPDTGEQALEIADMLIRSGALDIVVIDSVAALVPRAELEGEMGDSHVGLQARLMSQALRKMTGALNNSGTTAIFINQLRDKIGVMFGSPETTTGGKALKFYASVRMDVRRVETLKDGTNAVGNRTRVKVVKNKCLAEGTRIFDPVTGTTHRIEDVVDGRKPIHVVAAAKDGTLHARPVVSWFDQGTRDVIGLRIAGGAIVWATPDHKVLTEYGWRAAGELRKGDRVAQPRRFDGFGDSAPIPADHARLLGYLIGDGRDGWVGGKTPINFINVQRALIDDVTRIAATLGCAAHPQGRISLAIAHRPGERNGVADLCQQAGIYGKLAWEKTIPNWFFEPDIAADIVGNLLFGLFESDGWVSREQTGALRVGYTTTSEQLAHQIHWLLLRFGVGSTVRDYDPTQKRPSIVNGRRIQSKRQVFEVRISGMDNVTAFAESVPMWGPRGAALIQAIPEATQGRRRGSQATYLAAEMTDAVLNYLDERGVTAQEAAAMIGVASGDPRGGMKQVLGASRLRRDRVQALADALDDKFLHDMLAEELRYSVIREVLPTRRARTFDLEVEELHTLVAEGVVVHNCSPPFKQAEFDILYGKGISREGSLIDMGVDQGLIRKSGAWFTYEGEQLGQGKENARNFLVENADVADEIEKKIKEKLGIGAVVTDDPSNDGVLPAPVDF

[11] = system: Streptococcus sp. 'group A'; experiment: growth inhibition of control SK(-) GAS strain, dose response, counter-screen for streptokinase expression inhibitor project, luminescence, kanamycin, BacTiterGlo, confirmation (AID 1900); type: functional, organism-based
[12] = biological target: T8, Streptokinase A (Streptococcus pyogenes serotype M1, UniProt P10520); experiment: S. pyogenes streptokinase expression inhibitors, potency, dose response, plasminogen activation absorbance, OD405 (AID 1914); type: functional, Streptococcus pyogenes M1 GAS;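 note: secreted streptokinase activity via plasminogen activation per viability signal from cell pellet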
T8 sequence (P10520 whole entry): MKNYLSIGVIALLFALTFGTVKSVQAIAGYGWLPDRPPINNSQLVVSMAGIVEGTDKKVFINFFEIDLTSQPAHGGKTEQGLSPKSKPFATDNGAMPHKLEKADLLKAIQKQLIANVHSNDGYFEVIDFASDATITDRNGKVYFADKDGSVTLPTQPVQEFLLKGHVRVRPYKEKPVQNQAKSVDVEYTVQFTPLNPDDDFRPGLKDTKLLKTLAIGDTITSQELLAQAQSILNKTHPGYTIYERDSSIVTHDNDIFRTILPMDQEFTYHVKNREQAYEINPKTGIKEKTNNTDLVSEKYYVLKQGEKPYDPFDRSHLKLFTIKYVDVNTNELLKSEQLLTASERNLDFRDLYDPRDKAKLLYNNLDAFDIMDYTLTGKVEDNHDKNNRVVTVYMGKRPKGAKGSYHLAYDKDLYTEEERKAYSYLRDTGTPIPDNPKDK

[13] = system: Streptococcus; experiment: Group A Streptococcus viability loss, dose response, counter-screen for streptokinase expression inhibitor project, luminescence, BacTiterGlo (AID 1915); type: functional, organism-based;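 note: potency for reduction of bacterial viability or growth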

SMILES	IC50 [4]	IC50 [5]	other results
CN(C)/C=C1\C(=O)N(c2ccc([N+](=O)[O-])cc2)N=C1c1ccccc1	–	–	CC50 [1]: 31.8 µM (active); EC50 [2]: 15 µM (active); EC50 [3]: 10.6 µM (active)
Cc1cc(C)c2c(=O)c(C#N)coc2c1	> 66 µM (inactive)	> 66 µM (inactive)	–
Oc1cccc(C(=S)N2CCCCC2)c1	> 66 µM (inactive)	> 66 µM (inactive)	–
CC(C)(C)C1CCc2c(C(=O)NNC(=O)CCCC(=O)O)csc2C1 (configuration not stated)	–	–	IC50 [6]: 11.6 µM (active)
Nc1cccc2c1C(=O)N(Cc1nnc(-c3ccccc3Br)o1)C2=O	> 66 µM (inactive)	48.1 µM (inactive)	EC50 [7]: 40 µM (active); EC50 [8]: 29.4 µM (active)
Cc1ccc(-c2n[nH]c3c2C(C)C(C#N)=C(N)O3)cc1 (configuration not stated)	–	–	IC50 [6]: 16.3 µM (active); AC50 [9]: > 380 µM (inconclusive); EC50 [10]: 0.518 µM (active)
CCOC(=O)C1(CCc2ccccc2)CCN(Cc2ccc(O)cc2)CC1	–	–	EC50 [2]: 2.99 µM (active); EC50 [3]: 5.31 µM (active)
CC(C)C1OC2c3cccc4cccc(c34)C2N1c1ccccc1 (configuration not stated)	> 66 µM (inactive)	> 66 µM (inactive)	EC50 [11]: 3.22 µM (active); EC50 [12]: 2.61 µM (active); EC50 [13]: > 150 µM (not active)
Cc1ccc(Sc2cc(C(=O)NCCN(C)C)c3ccccc3n2)cc1	–	–	EC50 [3]: 2.66 µM (active)
O=C1NN(CCO)C(=S)Nc2ccccc21	> 66 µM (inactive)	> 66 µM (inactive)	–
NC(=O)c1cccc2c1-c1ccccc1/C2=N/NC(N)=S	> 66 µM (inactive)	> 66 µM (inactive)	–
COc1ccccc1N1CCN(/N=C/c2c(C)nn(-c3ccccc3)c2C)CC1	> 66 µM (inactive)	> 66 µM (inactive)	–
COC1=CC(=NCl)C=CC1=NCl	> 66 µM (inactive)	49.9 µM (inactive)	–
O/N=C/c1c[nH]c2ccccc12	–	–	IC50 [6]: 13.2 µM (active)
